In patent US12319721B2 (Purdue Research Foundation, priority 2018, dated 2025):
Bridges are numbered along the chain shown (N, C = ends). Roman numbers before positions name the chains, in order. Where no end group is shown, it is not given here. [ ]: non-standard residue; d: D form. The star is where a group is joined. mini PEG = minipeg spacer; Nle = CCCC[C@H](N)C(=O)O; Octanoyl = CCCCCCCC(=O)*; Dap = NC[C@H](N)C(=O)O

Legend:
[1] = test system: fracture callus of fractured femur; test: Femur fracture model, microCT of the fracture callus (BV/TV, BV, TbTh, TbSp); type: in vivo, Swiss Webster mice
From the text: All in vivo data included herein are from Swiss Webster mice. […] 1×concentration represents 1 nmol/day, 10× represents 10 nmol/day, 100×represents 100 nmol/day and most studies have an n of 5.
The term “BV/TV” means the bone volume divided by total volume of the 100 thickest micro CT slices of the fracture callus.
The term “TbTh” means the trabecular thickness of the 100 thickest micro CT slices of the fracture callus.
The term “[…]” means the overall bone volume of the 100 thickest micro CT slices of the fracture callus.
The term “TbSp” means the spacing between the trabecula in the 100 thickest micro CT slices of the fracture callus.
The targeted conjugates were synthesized using standard Fmoc solid-phase peptide synthesis, as described above. To ensure the conjugates' activity, mouse pre osteo-blast (MCTC3-1) cells were treated with the targeted and untargeted compounds for three days at concentrations from 1 pM to 100 nM. After three days of treatment, the cells were harvested, and the ribonucleic acid (RNA) was purified from the cells. Expression levels of ALP, RUNx2, OSX, osteo-pontin (OPN), collagen 1A (Col-1A), OPG, RANKL, scle-rostin gene (SOST), and OC were quantified via quantitative reverse transcription polymerase chain reaction (RT-qPCR). Once the biological activity of the conjugates was confirmed, they were tested in vivo in a fracture model. Aseptic surgical techniques were used to place a 23-gage needle as in intramedullary nail in the femur of anesthetized, 12-week-old Swiss Webster mice for internal fixation before fracture. Femur fractures were induced using a drop weight fracture device from RISystem. The mice received buprenorphine for three days post fracture. […] Fracture healing was assessed using microCT (Scanco Medical Ag). Morphometric parameters were quantified in the 100 widest slices of the fracture callus. Trabecular thickness (TbTh), trabecular spacing (TbSp), total volume (TV), and volume of calcified callus (BV) were calculated. Fractured femurs were tested for strength in a four-point bend to failure using an Electro Force TestBench (TA Instruments). Lower supports were 10 mm apart on the anterior face of the femur in contact with the proximal and distal diaphysis. Upper supports were 4 mm apart and spanned the entire fracture callus on the diaphysis. Force was applied from the posterior face of the femur with a displacement rate of 0.3 mm/sec. Peak load, yield load, stiffness, displacement post yield, work to fracture, and deformation data were generated. Statistical analysis was performed using a two-way analysis of variance (ANOVA) and a Tukey post-hoc analysis with significance reported at the 95% confidence level. All animal experiments were performed in accordance with protocols approved by Purdue University's Institutional Animal Care and Use Committee (IACUC).

[2] = test system: healed fractured femur; test: Femur fracture model, postmortem four-point bend of the healed femur; type: in vivo, Swiss Webster mice
From the text: All in vivo data included herein are from Swiss Webster mice. All mice received an osteotomy on their right femur and received subcutaneous drug administration daily for either 2, 3 or 4 weeks, as indicated, for each compound. 1×concentration represents 1 nmol/day, 10× represents 10 nmol/day, 100×represents 100 nmol/day and most studies have an n of 5.
The term “Peak Load” means a postmortem 4 point bend of the healed femur. Peak load represents the maximum force the healed femur withstood before it refractured.
The targeted conjugates were synthesized using standard Fmoc solid-phase peptide synthesis, as described above. To ensure the conjugates' activity, mouse pre osteo-blast (MCTC3-1) cells were treated with the targeted and untargeted compounds for three days at concentrations from 1 pM to 100 nM. After three days of treatment, the cells were harvested, and the ribonucleic acid (RNA) was purified from the cells. Expression levels of ALP, RUNx2, OSX, osteo-pontin (OPN), collagen 1A (Col-1A), OPG, RANKL, scle-rostin gene (SOST), and OC were quantified via quantitative reverse transcription polymerase chain reaction (RT-qPCR). Once the biological activity of the conjugates was confirmed, they were tested in vivo in a fracture model. Aseptic surgical techniques were used to place a 23-gage needle as in intramedullary nail in the femur of anesthetized, 12-week-old Swiss Webster mice for internal fixation before fracture. Femur fractures were induced using a drop weight fracture device from RISystem. The mice received buprenorphine for three days post fracture. The mice were dosed subcutaneously each day for two weeks, three weeks, 4 weeks, or 17 days. Fracture healing was assessed using microCT (Scanco Medical Ag). Morphometric parameters were quantified in the 100 widest slices of the fracture callus. Trabecular thickness (TbTh), trabecular spacing (TbSp), total volume (TV), and volume of calcified callus (BV) were calculated. Fractured femurs were tested for strength in a four-point bend to failure using an Electro Force TestBench (TA Instruments). Lower supports were 10 mm apart on the anterior face of the femur in contact with the proximal and distal diaphysis. Upper supports were 4 mm apart and spanned the entire fracture callus on the diaphysis. Force was applied from the posterior face of the femur with a displacement rate of 0.3 mm/sec. Peak load, yield load, stiffness, displacement post yield, work to fracture, and deformation data were generated. Statistical analysis was performed using a two-way analysis of variance (ANOVA) and a Tukey post-hoc analysis with significance reported at the 95% confidence level. All animal experiments were performed in accordance with protocols approved by Purdue University's Institutional Animal Care and Use Committee (IACUC).

[3] = 3 weeks, 0.1, 1 and 10 nmol daily subcutaneous
[4] = 3 weeks, 0.1, 1 and 10 nmol daily subcutaneous, n=5
[5] = 2 weeks, various concentrations 1-100 nmol/day, subcutaneous daily
[6] = 3 weeks, 1, 10 and 100 nmol daily subcutaneous, n=5
[7] = 4 weeks, various concentrations (1, 10 and in part 100 nmol/day), subcutaneous daily
[8] = 1 μmol/kg, subcutaneous, every-other-day, CFW Swiss Webster mice

B2A_mp4_(D)E10: two B2A branches (SEQ ID NO: 44) conjugated to e10 (D-glutamic acids), SEQ ID NO: 19, FIG. 35 (AIS[Nle]LYLDENEKVVLK; not fully specified; also: C-terminal Lys carries branching Lys-Ahx3-D-Glu10 moiety)
BV/TV (bone density) [1, 3]: raises bone density
BV (bone volume, bone mineralization) [1, 4]: raises bone mineralization
Max load (bone strength) [2, 4]: raises bone strength
Work to fracture (bone strength) [2, 4]: raises bone strength

BFP-D10: bone forming peptide conjugated with 10 aspartate acids, SEQ ID NO: 1, DDDDDDDDDDGQGFSYPYKA VFSTQ (DDDDDDDDDDGQGFSYPYKAVFSTQ; 10 aspartates)
BV/TV [1, 5]: dose dependent manner
TbSp [1, 5]: dose dependent manner
Peak load of fractured femurs (ranking, compared to PBS) ([2]; after 2 weeks, 100 nmol/day (100×)): obtained the maximum peak load

CBM D10: collagen binding motif of osteopontin conjugated with 10 aspartate acids, SEQ ID NO: 9, FIG. 33
BV/TV (bone density) [1, 3]: dose dependent manner

F2A_mp4_(D)E10: two copies of FGF2 receptor targeting sequence YRSRKYSSWYVALKR branching from a lysine, 4 mini pegs, 10 D glutamic acids
BV/TV (bone density) [1, 3]: raises bone density
BV (bone volume, bone mineralization) [1, 4]: raises bone mineralization
Max load (bone strength) [2, 4]: raises bone strength
Work to fracture (bone strength) [2, 4]: raises bone strength

F119_mp4 (D)E10: heparin binding fragment 119-135 of FGF2 with mp4 linker and 10 glutamic acids, SEQ ID NO: 20, FIG. 84 (KRTGQYKLGSKTGPGQK; mp4 linker, 10 D-glutamic acids; SITE 17 C-term Lysine modified with 4 mini PEG linker-d(Glutamic acid)10 moiety)
BV (bone volume, bone mineralization) [1, 6]: raises bone mineralization
BV/TV (bone density) [1, 6]: raises bone density
Max load (bone strength) [2, 6]: raises bone strength
Work to fracture (bone strength) [2, 6]: raises bone strength

Ghrelin-D 10: Ghrelin D10 with Ser-3 replaced with diaminopropionic acid modified with an octanoyl group sidechain, SEQ ID NO: 5 (GS[Dap](Octanoyl)FLSPEHQKAQQRKESKKPPAKLQPRDDDDDDDDDD)
BV/TV [1, 7]: dose dependent manner

JNK3_Mp4_(D)E10: 25-residue arrestin-3 peptide (JNK3) with mp4 linker and 10 glutamic acids, SEQ ID NO: 21, FIG. 49 (MGEKPGTRVFKKSSPNCKLTVYLGK; mp4 linker, 10 D-glutamic acids; SITE 25 C-term Lysine modified with 4 mini PEG linker-d(Glutamic acid)10 moiety)
BV/TV (bone density) [1, 3]: raises bone density
BV (bone volume, bone mineralization) [1, 4]: raises bone mineralization
Max load (bone strength) [2, 4]: raises bone strength
Work to fracture (bone strength) [2, 4]: raises bone strength

MGF D10: Mechano-growth factor conjugated with 10 aspartate acids, SEQ ID NO: 11, DDDDDDDDDDYQPPSTNKNTKSQRRKGSTFEEHK (10 aspartates)
BV/TV [1, 7]: dose dependent manner

ODP D10: Osteopontin-derived peptide conjugated with 10 aspartate acids via 4 mini PEG, SEQ ID NO: 13 (DDDDDDDDDD[mini PEG][mini PEG][mini PEG][mini PEG]DVDVPDGRGDSLAYG)
BV/TV ([1]; 4 weeks, 1 nmol/day (1×)): healing was reflected as BV/TV

OGP-D10: osteogenic growth peptide conjugated with 10 aspartate acids, SEQ ID NO: 2, DDDDDDDDDDALKRQGRTL YGFGG (DDDDDDDDDDALKRQGRTLYGFGG; 10 aspartates)
BV/TV [1, 5]: dose dependent manner
TbSp [1, 5]: dose dependent manner
TbTh [1, 5]: dose dependent manner

Osteostatin_mp4_(D)E10: Osteostatin (PTHrP[107-139]) with 10 glutamic acids, SEQ ID NO: 23, FIG. 59
BV/TV (bone density) [1, 3]: raises bone density
Tbth (trabecular thickness, bone quality) [1, 4]: raises bone quality
Max load (bone strength) [2, 4]: raises bone strength
Stiffness [2, 4]: raises bone stiffness
Work to fracture (bone strength) [2, 4]: raises bone strength

P4 D10: P4 (BMP-2 knuckle epitope fragment) conjugated with 10 aspartate acids, SEQ ID NO: 10 (HKIPKASSVPTELSAISTLYLDDDDDDDDDD; 10 aspartates)
BV/TV [1, 7]: dose dependent manner

Preptin D10: Preptin conjugated with 10 aspartate acids, SEQ ID NO: 3, FIG. 29 (DVSTSQAVLPDDFPRYDDDDDDDDDD; 10 aspartates)
BV/TV [1, 5]: dose dependent manner
TbTh [1, 5]: dose dependent manner
bone volume (BV) [1, 5]: dose dependent manner

pBMP9 D 10: peptide from BMP-9 knuckle epitope conjugated with D10, SEQ ID NO: 6/14, FIG. 27 (chain 1 CGGKVGKACCVPTKLSPISVLYK; chain 2 CGGKVGKACCVPTKLSPISVLVK; not fully specified (C-terminus); cysteine pairing not given here; also: the two chains differ at position 22 (Y vs V))
bone volume (BV) ([1]; 4 weeks, 1, 10 and 100 nmol/day, subcutaneous daily): dose dependent manner
BV/TV [1, 7]: dose dependent manner

targeted E738 conjugate: Src inhibitor E738 conjugated with D10 (10 aspartic acids, SEQ ID NO: 30), FIG. 4 (DDDDDDDDDD; not fully specified (C-terminus); also: conjugated to Src inhibitor E738)
Trabecular Thickness at the fracture callus [1, 8]: significantly improved
bone density (BV/TV) at the fracture callus [1, 8]: significantly improved

B1: CNP D10: C-type Natriuretic peptide conjugated with 10 aspartate acids, SEQ ID NO: 7/16, FIG. 30 (peptide)
chain 1: DDDDDDDDDDGLSKGCFGLKLDRIGSMSGLGC
chain 2: B1 chain 1
modifications: disulfide I:16-I:32, II:16-II:32; not fully specified
BV/TV [1, 7]: dose dependent manner

B2: VIP D10: Vasoactive intestinal peptide conjugated with D10, SEQ ID NO: 8/17, FIG. 31 (peptide)
chain 1: HSDAVFTDNYTRLRKQMAVKKYLNSILNDDDDDDDDDD
chain 2: B2 chain 1
modifications: 10 aspartates
BV/TV ([1]; 4 weeks, 1 nmol/day (1×)): healing was reflected as BV/TV
TbTh ([1]; 4 weeks, 1 nmol/day (1×)): healing was reflected
